Here are results for twelve molecules from PubChem BioAssay (NCI).

Where “and” joins values, the source holds several entries; their conditions need not be identical. Identical values can stand only once.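 Following 48 hours of exposure in 96-well plates, responses at five concentrations were used to interpolate endpoints linearly. The concentration for 50% growth inhibition is given as GI50. Definition used: TGI = concentration required for complete inhibition of growth.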 Bounds are passed on as bounds.

Some test systems named below: SK-MEL-5 melanoma; HCC-2998 colon; CAKI-1 renal; ACHN renal; BT-549 breast; RXF 393 renal; HCT-15 colon; OVCAR-4 ovarian; LOX IMVI melanoma; IGROV1 ovarian.
What all share (test): inhibition of tumour cell growth, NCI panel, 48 h

In the case of `CN(C)c1ncnc2c1nnn2C1OC(CO)C(O)C1O` (stereo not drawn), the GI50 in the assay with SK-MEL-5 melanoma is 0.737 µM; in the assay on HCC-2998 colon it was 0.325 µM; in the assay on CAKI-1 renal it was 0.066 µM; in the assay on ACHN renal it was 0.141 µM; in the assay with BT-549 breast it was 1.09 µM; with RXF 393 renal, 0.386 µM. Moreover, the GI50 with HCT-15 colon is 0.229 µM; with OVCAR-4 ovarian it was 0.0558 µM; in the assay with LOX IMVI melanoma it was 0.156 µM; in the assay on IGROV1 ovarian, 0.361 µM. For the same molecule, the TGI was 5.7 µM in the assay with SK-MEL-5 melanoma; 8.77 µM in the assay on CAKI-1 renal; over 54 µM in the assay with ACHN renal; over 100 µM in the assay on BT-549 breast; over 100 µM in the assay on RXF 393 renal; over 100 µM in the assay on HCT-15 colon. Also, the TGI in the assay with OVCAR-4 ovarian is over 100 µM; in the assay on LOX IMVI melanoma it was over 100 µM; with IGROV1 ovarian it was 15.9 µM.
`O=C([O][Hg][CH2]C1COC([CH2][Hg][O]C(=O)c2ccccc2)CO1)c1ccccc1` (stereo not drawn): the GI50 is 15.1 µM and 2.85 µM in the assay with SK-MEL-5 melanoma; 17.6 µM and 3.65 µM with HCC-2998 colon; 3.38 µM in the assay with CAKI-1 renal; 8.92 µM and 1.67 µM in the assay on ACHN renal; 7.71 µM and 1.69 µM in the assay on BT-549 breast; 8.88 µM and 1.45 µM in the assay on RXF 393 renal. The GI50 in the assay on HCT-15 colon was 2.83 µM and 1.63 µM; with OVCAR-4 ovarian it was 11.3 µM; in the assay on LOX IMVI melanoma it was 1.89 µM and 1.66 µM; in the assay on IGROV1 ovarian, 8.71 µM. Besides, the TGI was 28.6 µM and 10.7 µM with SK-MEL-5 melanoma; 32.2 µM and 9.35 µM in the assay with HCC-2998 colon; 6.76 µM with CAKI-1 renal; 20.7 µM and 3.08 µM in the assay with ACHN renal; 20.4 µM and 3.27 µM in the assay with BT-549 breast; 22.8 µM and 2.76 µM with RXF 393 renal. Besides, the TGI with HCT-15 colon is 5.67 µM and 3.15 µM; in the assay with OVCAR-4 ovarian, 25.2 µM; in the assay with LOX IMVI melanoma, 4.85 µM and 3.11 µM; in the assay on IGROV1 ovarian it was 17.2 µM.
As to `COC1CCC(O)C(/C=C/[N+](=O)[O-])C1` (stereo not drawn), the TGI with SK-MEL-5 melanoma was 14.9 µM; in the assay with HCC-2998 colon it was 3.14 µM; in the assay with CAKI-1 renal it was 38.4 µM; in the assay with ACHN renal, 29.9 µM; in the assay with BT-549 breast, 8.49 µM; in the assay on RXF 393 renal, 2.91 µM. For the same molecule, the TGI with HCT-15 colon was 4.69 µM; in the assay with OVCAR-4 ovarian it was 28.4 µM; in the assay on LOX IMVI melanoma, 3.05 µM; in the assay with IGROV1 ovarian it was 3.55 µM.
Take `c1ccc(-c2cc(C3CO3)c3ccccc3n2)cc1` (stereo not drawn): the TGI with SK-MEL-5 melanoma came to 31.4 µM; with HCC-2998 colon it was 35.2 µM; with CAKI-1 renal it was 47.9 µM; with ACHN renal, 32.8 µM; with BT-549 breast, 43.6 µM; in the assay on RXF 393 renal, 28.3 µM. The TGI in the assay with HCT-15 colon stood at 40.7 µM; with OVCAR-4 ovarian it was 37.2 µM; in the assay on LOX IMVI melanoma, 34.1 µM; in the assay on IGROV1 ovarian, 36.6 µM.
For `CC(C)(C)c1[nH]cnc1/C=c1\[nH]c(=O)/c(=C/c2ccccc2)[nH]c1=O`, the GI50 was under 0.0133 µM in the assay on SK-MEL-5 melanoma; 0.0307 µM in the assay with HCC-2998 colon; under 0.01 µM in the assay with CAKI-1 renal; under 0.01 µM in the assay on ACHN renal; 0.0139 µM in the assay with BT-549 breast; under 0.01 µM with RXF 393 renal. Besides, the GI50 was under 0.01 µM with HCT-15 colon, 0.151 µM in the assay with OVCAR-4 ovarian, under 0.0121 µM in the assay on LOX IMVI melanoma and 0.0134 µM with IGROV1 ovarian. For the same molecule, the TGI in the assay on SK-MEL-5 melanoma is 0.137 µM; in the assay with HCC-2998 colon, 33.1 µM; with CAKI-1 renal, 32.7 µM; with ACHN renal it was 35.7 µM; in the assay on BT-549 breast it was 12.1 µM; in the assay with RXF 393 renal it was 56.8 µM. Further, the TGI came out at 13.5 µM in the assay on HCT-15 colon, 55.3 µM in the assay on OVCAR-4 ovarian, 17.7 µM in the assay with LOX IMVI melanoma and 24.2 µM in the assay on IGROV1 ovarian.
For the molecule `CN(N=O)C(=O)N[C@@H](C=O)[C@@H](O)[C@H](O)[C@H](O)CO`, the GI50 in the assay on SK-MEL-5 melanoma, in the assay on HCC-2998 colon, in the assay on CAKI-1 renal, in the assay on RXF 393 renal, in the assay with HCT-15 colon and in the assay on OVCAR-4 ovarian was over 750 µM throughout. For the same molecule, the GI50 is 722 µM and > 750 µM with LOX IMVI melanoma; over 750 µM in the assay with IGROV1 ovarian. For the same molecule, the TGI in the assay on SK-MEL-5 melanoma is 631 µM and > 750 µM; with HCC-2998 colon it was 600 µM and > 750 µM; with CAKI-1 renal, 457 µM and > 750 µM; in the assay with ACHN renal, over 750 µM; with BT-549 breast, over 750 µM; with RXF 393 renal, over 750 µM. The TGI is 666 µM and > 750 µM with HCT-15 colon; 609 µM and > 750 µM in the assay on OVCAR-4 ovarian; over 750 µM in the assay with LOX IMVI melanoma; over 750 µM in the assay with IGROV1 ovarian.
Consider `O=C(c1ccco1)c1nc2cc(F)ccc2[n+]([O-])c1C(F)(F)F`, for which the GI50 with SK-MEL-5 melanoma is over 100 µM; in the assay with HCC-2998 colon, 17 µM; in the assay on CAKI-1 renal, 15.8 µM; in the assay on ACHN renal, 27.6 µM; in the assay with BT-549 breast, 22.2 µM; in the assay on RXF 393 renal, 19.2 µM. The GI50 was 17.8 µM in the assay on HCT-15 colon, 21.5 µM in the assay with OVCAR-4 ovarian, 19.4 µM with LOX IMVI melanoma and 17.9 µM in the assay on IGROV1 ovarian. Besides, the TGI was over 100 µM with SK-MEL-5 melanoma; 32 µM with HCC-2998 colon; 30.8 µM in the assay on CAKI-1 renal; over 100 µM in the assay with ACHN renal; 51.6 µM with BT-549 breast; 52.7 µM in the assay with RXF 393 renal. Also, the TGI came to 39.1 µM in the assay with HCT-15 colon, 50.5 µM in the assay on OVCAR-4 ovarian, 39.2 µM in the assay on LOX IMVI melanoma and 36.7 µM in the assay on IGROV1 ovarian.
As for `COc1ccc2c(c1)C(=O)c1c-2c(Nc2ccc(C(C)=O)cc2)nc2ccccc12`, the GI50 with SK-MEL-5 melanoma is 48.3 µM; in the assay on HCC-2998 colon it was 97.1 µM; with CAKI-1 renal it was over 100 µM; in the assay on ACHN renal, 53.5 µM; in the assay with BT-549 breast, 17.7 µM; with RXF 393 renal, 2.54 µM. The GI50 is over 100 µM with HCT-15 colon, 58.3 µM in the assay with OVCAR-4 ovarian, 54.7 µM in the assay with LOX IMVI melanoma and 22.9 µM in the assay with IGROV1 ovarian. For the same molecule, the TGI with SK-MEL-5 melanoma is over 100 µM; in the assay on HCC-2998 colon it was over 100 µM; with CAKI-1 renal it was over 100 µM; in the assay with ACHN renal it was over 100 µM; with BT-549 breast, 78.3 µM; with RXF 393 renal it was 9.2 µM. In addition, the TGI in the assay on HCT-15 colon was over 100 µM; in the assay with OVCAR-4 ovarian, over 100 µM; in the assay with LOX IMVI melanoma it was over 100 µM; with IGROV1 ovarian it was 92.8 µM.
In the case of `O=[N+]([O-])c1ccc2c(N3CCC(CCCC4CCN(c5ncnc6cc([N+](=O)[O-])ccc56)CC4)CC3)ncnc2c1`, the GI50 in the assay with SK-MEL-5 melanoma is 0.156 µM; in the assay with HCC-2998 colon, over 87.1 µM; in the assay with CAKI-1 renal, 5.29 µM; with ACHN renal, over 48 µM; in the assay with BT-549 breast it was 6.33 µM; in the assay on RXF 393 renal it was 30.8 µM. The GI50 was over 50.6 µM in the assay with HCT-15 colon, 21.5 µM with OVCAR-4 ovarian, 29.7 µM with LOX IMVI melanoma and over 62.8 µM in the assay on IGROV1 ovarian. For the same molecule, the TGI with SK-MEL-5 melanoma was 11.8 µM; with HCC-2998 colon, over 100 µM; with CAKI-1 renal it was over 100 µM; in the assay with ACHN renal it was over 100 µM; in the assay with BT-549 breast, over 70.6 µM; in the assay on RXF 393 renal it was over 100 µM. Besides, the TGI in the assay on HCT-15 colon, in the assay on OVCAR-4 ovarian, in the assay on LOX IMVI melanoma and in the assay with IGROV1 ovarian was over 100 µM each time.
For `CNC(=O)c1ccc2cc(C3(O)CCn4cncc43)ccc2c1` (stereo not drawn), the GI50 with SK-MEL-5 melanoma, in the assay with HCC-2998 colon, in the assay with CAKI-1 renal, with ACHN renal, with BT-549 breast and in the assay on RXF 393 renal was over 100 µM each time. Moreover, the GI50 in the assay on HCT-15 colon, in the assay with OVCAR-4 ovarian, in the assay on LOX IMVI melanoma and in the assay on IGROV1 ovarian was over 100 µM throughout. The TGI in the assay with SK-MEL-5 melanoma, in the assay with HCC-2998 colon, in the assay on CAKI-1 renal, in the assay on ACHN renal, in the assay with BT-549 breast and in the assay on RXF 393 renal was over 100 µM throughout. The TGI with HCT-15 colon, in the assay on OVCAR-4 ovarian, in the assay with LOX IMVI melanoma and in the assay with IGROV1 ovarian was over 100 µM in each case.
Regarding `O=C(Nc1cccc(Oc2nnc(Cl)c3ccccc23)c1)Nc1ccc(Cl)c(C(F)(F)F)c1`, the GI50 in the assay on SK-MEL-5 melanoma was 0.985 µM; with HCC-2998 colon, 0.872 µM; with CAKI-1 renal, 0.832 µM; in the assay with ACHN renal, 0.711 µM; with BT-549 breast, 0.674 µM; with RXF 393 renal, 1.17 µM. Besides, the GI50 with HCT-15 colon is 0.765 µM; in the assay on OVCAR-4 ovarian, 0.593 µM; with LOX IMVI melanoma it was 0.68 µM; in the assay on IGROV1 ovarian, 1.04 µM. Moreover, the TGI amounted to 3.25 µM with SK-MEL-5 melanoma; 3.48 µM with HCC-2998 colon; 6.5 µM in the assay with CAKI-1 renal; 3.8 µM with ACHN renal; 3.07 µM in the assay with BT-549 breast; 3.87 µM with RXF 393 renal. The TGI was found to be 3.53 µM in the assay with HCT-15 colon, 6.01 µM with OVCAR-4 ovarian, 2.82 µM in the assay on LOX IMVI melanoma and 5.85 µM in the assay with IGROV1 ovarian.
As for `CN(C)CCOc1ccc(/C(=C(/CCCl)c2ccccc2)c2ccccc2)cc1`, the GI50 is 0.784 µM in the assay with SK-MEL-5 melanoma; 0.776 µM with HCC-2998 colon; 0.979 µM in the assay on CAKI-1 renal; 1.8 µM in the assay on ACHN renal; 0.976 µM in the assay with BT-549 breast; 0.698 µM in the assay on RXF 393 renal. In addition, the GI50 with HCT-15 colon is 1.95 µM; with OVCAR-4 ovarian, 1.47 µM; in the assay on LOX IMVI melanoma, 0.819 µM; with IGROV1 ovarian it was 1.33 µM. Also, the TGI in the assay with CAKI-1 renal is 3.73 µM and 29.7 µM; in the assay with ACHN renal, 6.55 µM and 31.9 µM; in the assay with BT-549 breast, 1.8 µM; in the assay on RXF 393 renal, 1.4 µM; with HCT-15 colon, 7.87 µM and 28.1 µM; in the assay on OVCAR-4 ovarian it was 5.1 µM and 32.9 µM.
